Measurements as given in patent publication US10245275B2 (ViiV HEALTHCARE UK (NO.4) LIMITED, priority 2014, dated 2019).
Like-named read-outs stand apart in the source and are kept apart here.

Experiments:
[1] = system: HIV-1 NL4-3 gag A364V virus; assay: microbe, parasite or virus in culture; type: cell-based
Description: (§1) MT-2 cells and 293T cells were obtained from the NIH AIDS Research and Reference Reagent Program. MT-2 cells were propagated in RPMI 1640 media supplemented with 10% heat-inactivated fetal bovine serum, […]. The 293T cells were propagated in DMEM media supplemented with 10% heat-inactivated fetal bovine serum (FBS), 100 units/mL penicillin G and 100 μg/mL streptomycin. […] A recombinant NL4-3 virus, in which a section of the nef gene from NL4-3 was replaced with the Renilla luciferase gene, was used as a reference virus. In addition, residue Gag P373 was converted to P373S. […] Transfections were performed in 293T cells using LipofectAMINE PLUS from Invitrogen (Carlsbad, Calif.), according to manufacturer's instruction. The virus was titered in MT-2 cells using luciferase enzyme activity as a marker. Luciferase was quantitated using the Dual Luciferase kit from Promega (Madison, Wis.), with modifications to the manufacturer's protocol. The diluted Passive Lysis solution was pre-mixed with the re-suspended Luciferase Assay Reagent and the re-suspended Stop & Glo Substrate (2:1:1 ratio). Fifty (50) μL of the mixture was added to each aspirated well on assay plates and luciferase activity was measured immediately on a Wallac TriLux (Perkin-Elmer). Antiviral activities of inhibitors toward the recombinant virus were quantified by measuring luciferase activity in cells infected for 4-5 days with NLRluc recombinants in the presence serial dilutions of the inhibitor.
Both recombinant viruses were used as described above in the HIV cell culture assay for the NL4-3 virus.

[2] = system: WT (wild-type HIV virus; recombinant NL4-3 virus); assay: microbe, parasite or virus in culture; type: cell-based, HIV-1
Description: as §1
WT refers to wild-type HIV virus. […]

[3] = Human immunodeficiency virus 1, NL43, MT2, read-out: A364V (EC50, uM), Table 1 regular screen, class symbol
[4] = Human immunodeficiency virus 1, NL43, MT2, read-out: WT (EC50, uM), Table 1 regular screen, class symbol
[5] = Human immunodeficiency virus 1, NL43, MT2, read-out: A364V (EC50, uM), Table 1 regular screen, MT-2 cells, luciferase readout
[6] = Human immunodeficiency virus 1, NL43, MT2, read-out: WT (EC50, uM), Table 1 regular screen, MT-2 cells, luciferase readout

Compound	EC50 [1, 3]	EC50 [2, 4]	EC50 [1, 5]	EC50 [2, 6]	further results
C=C(C)[C@@H]1CC[C@]2(NCC(=O)N3CCN(S(C)(=O)=O)CC3)CC[C@]3(C)[C@H](CC[C@@H]4[C@@]5(C)CC=C(C6=CC[C@](CF)(C(=O)O)CC6)C(C)(C)[C@@H]5CC[C@]43C)[C@@H]12 [Example 33, (S)-1-(fluoromethyl)-4-((1R,3aS,5aR,5bR,7aR,11aS,11bR,13aR,13bR)-5a,5b,8,8,11a-pentamethyl-3a-((2-(4-(methylsulfonyl)piperazin-1-yl)-2-oxoethyl)amino)-1-(prop-1-en-2-yl)-2,3,3a,4,5,5a,5b,6,7,7a,8,11,11a,11b,12,13,13a,13b-octadecahydro-1H-cyclopenta[a]chrysen-9-yl)cyclohex-3-enecarboxylic acid]	> 0.05 µM	< 0.05 µM			
C=C(C)[C@@H]1CC[C@]2(NCCN3CCCC3=O)CC[C@]3(C)[C@H](CC[C@@H]4[C@@]5(C)CC=C(C6=CC[C@](CF)(C(=O)O)CC6)C(C)(C)[C@@H]5CC[C@]43C)[C@@H]12 [Example 20, (S)-1-(fluoromethyl)-4-((1R,3aS,5aR,5bR,7aR,11aS,11bR,13aR,13bR)-5a,5b, 8,8,11a-pentamethyl-3a-((2-(2-oxopyrrolidin-1-yl)ethyl)amino)-1-(prop-1-en-2-yl)-2,3,3a,4,5,5a,5b,6,7,7a,8,11,11a,11b,12,13,13a,13b-octadecahydro-1H-cyclopenta[a]chrysen-9-yl)cyclohex-3-enecarboxylic acid]			0.129 µM	0.00253 µM	
C=C(C)[C@@H]1CC[C@]2(CNCC(C)(C)N3CCS(=O)(=O)CC3)CC[C@]3(C)[C@H](CC[C@@H]4[C@@]5(C)CC=C(C6=CC[C@](CF)(C(=O)O)CC6)C(C)(C)[C@@H]5CC[C@]43C)[C@@H]12 [Example 10, (S)-4-((1R,3aS,5aR,5bR,7aR,11aS,11bR,13aR,13bR)-3a-(((2-(1,1-dioxidothiomorpholino)-2-methylpropyl)amino)methyl)-5a,5b, 8,8,11a-pentamethyl-1-(prop-1-en-2-yl)-2,3,3a,4,5,5a,5b,6,7,7a,8,11,11a,11b,12,13,13a,13b-octadecahydro-1H-cyclopenta[a]chrysen-9-yl)-1-(fluoromethyl)cyclohex-3-enecarboxylic acid]	< 0.05 µM	< 0.05 µM			
C=C(C)[C@@H]1CC[C@]2(NCC=C(C3CC3)C3CC3)CC[C@]3(C)[C@H](CC[C@@H]4[C@@]5(C)CC=C(C6=CC[C@](CF)(C(=O)O)CC6)C(C)(C)[C@@H]5CC[C@]43C)[C@@H]12 [Example 2-6, (S)-4-((1R,3aS,5aR,5bR,7aR,11aS,11bR,13aR,13bR)-3a-((3,3-dicyclopropylallyl)amino)-5a,5b,8,8,11a-pentamethyl-1-(prop-1-en-2-yl)-2,3,3a,4,5,5a,5b,6,7,7a,8,11,11a,11b,12,13,13a,13b-octadecahydro-1H-cyclopenta[a]chrysen-9-yl)-1-(fluoromethyl)cyclohex-3-enecarboxylic acid]			3 µM	0.011 µM	
C=C(C)[C@@H]1CC[C@]2(NCCC3(O)CCS(=O)(=O)CC3)CC[C@]3(C)[C@H](CC[C@@H]4[C@@]5(C)CC=C(C6=CC[C@](CF)(C(=O)O)CC6)C(C)(C)[C@@H]5CC[C@]43C)[C@@H]12 [Example 2-13, (S)-1-(fluoromethyl)-4-((1R,3aS,5aR,5bR,7aR,11aS,11bR,13aR,13bR)-3a-((2-(4-hydroxy-1,1-dioxidotetrahydro-2H-thiopyran-4-yl)ethyl)amino)-5a,5b,8,8,11a-pentamethyl-1-(prop-1-en-2-yl)-2,3,3a,4,5,5a,5b,6,7,7a,8,11,11a,11b,12,13,13a,13b-octadecahydro-1H-cyclopenta[a]chrysen-9-yl)cyclohex-3-enecarboxylic acid]	> 0.05 µM	< 0.05 µM			
C=C(C)[C@@H]1CC[C@]2(NCC(=O)N3CCC(S(C)(=O)=O)CC3)CC[C@]3(C)[C@H](CC[C@@H]4[C@@]5(C)CC=C(C6=CC[C@](CF)(C(=O)O)CC6)C(C)(C)[C@@H]5CC[C@]43C)[C@@H]12 [Example 31, (S)-1-(fluoromethyl)-4-((1R,3aS,5aR,5bR,7aR,11aS,11bR,13aR,13bR)-5a,5b, 8,8,11a-pentamethyl-3a-((2-(4-(methylsulfonyl)piperidin-1-yl)-2-oxoethyl)amino)-1-(prop-1-en-2-yl)-2,3,3a,4,5,5a,5b,6,7,7a,8,11,11a,11b,12,13,13a,13b-octadecahydro-1H-cyclopenta[a]chrysen-9-yl)cyclohex-3-enecarboxylic acid]	> 0.05 µM	< 0.05 µM			
C=C(C)[C@@H]1CC[C@]2(C(=O)NCCN3CCS(=O)(=O)CC3)CC[C@]3(C)[C@H](CC[C@@H]4[C@@]5(C)CC=C(C6=CC[C@@](CF)(C(=O)O)CC6)C(C)(C)[C@@H]5CC[C@]43C)[C@@H]12 [Example 38, (R)-4-((1R,3aS,5aR,5bR,7aR,11aS,11bR,13aR,13bR)-3a-((2-(1,1-dioxidothiomorpholino)ethyl)carbamoyl)-5a,5b,8,8,11a-pentamethyl-1-(prop-1-en-2-yl)-2,3,3a,4,5,5a,5b,6,7,7a,8,11,11a,11b,12,13,13a,13b-octadecahydro-1H-cyclopenta[a]chrysen-9-yl)-1-(fluoromethyl)cyclohex-3-enecarboxylic acid]	< 0.05 µM	< 0.05 µM			
C=C(C)[C@@H]1CC[C@]2(NCCC3(O)CCC(OS(C)(=O)=O)CC3)CC[C@]3(C)[C@H](CC[C@@H]4[C@@]5(C)CC=C(C6=CC[C@](CF)(C(=O)O)CC6)C(C)(C)[C@@H]5CC[C@]43C)[C@@H]12 (stereo partly drawn) [Example 2-22, (S)-1-(fluoromethyl)-4-((1R,3aS,5aR,5bR,7aR,11aS,11bR,13aR,13bR)-3a-((2-(1-hydroxy-4-((methylsulfonyl)oxy)cyclohexyl)ethyl)amino)-5a,5b,8,8,11a-pentamethyl-1-(prop-1-en-2-yl)-2,3,3a,4,5,5a,5b,6,7,7a,8,11,11a,11b,12,13,13a,13b-octadecahydro-1H-cyclopenta[a]chrysen-9-yl)cyclohex-3-enecarboxylic acid]			0.107 µM	0.00315 µM	
C=C(C)[C@@H]1CC[C@]2(NCCC(C)C)CC[C@]3(C)[C@H](CC[C@@H]4[C@@]5(C)CC=C(C6=CC[C@](CF)(C(=O)O)CC6)C(C)(C)[C@@H]5CC[C@]43C)[C@@H]12 [Example 2-7, (S)-1-(fluoromethyl)-4-((1R,3aS,5aR,5bR,7aR,11aS,11bR,13aR,13bR)-3a-(isopentylamino)-5a,5b,8,8,11a-pentamethyl-1-(prop-1-en-2-yl)-2,3,3a,4,5,5a,5b,6,7,7a,8,11,11a,11b,12,13,13a,13b-octadecahydro-1H-cyclopenta[a]chrysen-9-yl)cyclohex-3-enecarboxylic acid]			3 µM	0.116 µM	
C=C(C)[C@@H]1CC[C@]2(NCCO)CC[C@]3(C)[C@H](CC[C@@H]4[C@@]5(C)CC=C(C6=CC[C@@](CF)(C(=O)O)CC6)C(C)(C)[C@@H]5CC[C@]43C)[C@@H]12 [Example 19, (R)-1-(fluoromethyl)-4-((1R,3aS,5aR,5bR,7aR,11aS,11bR,13aR,13bR)-3a-((2-hydroxyethyl)amino)-5a,5b,8,8,11a-pentamethyl-1-(prop-1-en-2-yl)-2,3,3a,4,5,5a,5b,6,7,7a,8,11,11a,11b,12,13,13a,13b-octadecahydro-1H-cyclopenta[a]chrysen-9-yl)cyclohex-3-enecarboxylic acid]					EC50 ([1]; Human immunodeficiency virus 1, NL43, MT2, read-out: A364V (EC50, uM)): > 0.05 µM; EC50 ([2]; Human immunodeficiency virus 1, NL43, MT2, read-out: WT (EC50, uM)): < 0.05 µM
